Reference: ChEMBL document CHEMBL1201862, “PubChem BioAssay data set” (2004)
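Five concentrations, 48 hours, 96-well plates. GI50 is the concentration that inhibits growth by half.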 Calls of active or inactive are those of the source. Cut-off read from the data, not from the text of the source: active = GI50 up to about 1.1 µM and inactive = higher.

How the values were obtained:
Assay in all cases: NCI tumour cell line growth inhibition, 48 h
RXF 393 = system: RXF 393
Malme-3M = system: Malme-3M
OVCAR-4 = system: OVCAR-4
HCT-15 = system: HCT-15
NCI-H460 = system: NCI-H460
DMS-273 = system: DMS-273
UACC-257 = system: UACC-257
UO-31 = system: UO-31
HCT-116 = system: HCT-116
RPMI-8226 = system: RPMI-8226
CAKI-1 = system: CAKI-1
MOLT-4 = system: MOLT-4
A549 = system: A549
HCC 2998 = system: HCC 2998
KM12 = system: KM12
IGROV-1 = system: IGROV-1
OVCAR-8 = system: OVCAR-8
HL-60 = system: HL-60
SW-620 = system: SW-620

SMILES	GI50 (RXF 393)	GI50 (Malme-3M)	GI50 (OVCAR-4)	GI50 (HCT-15) [µM]	GI50 (NCI-H460)	GI50 (DMS-273)	GI50 (UACC-257)	GI50 (UO-31)	GI50 (HCT-116)	GI50 (RPMI-8226)	GI50 (CAKI-1)	GI50 (MOLT-4)	GI50 (A549)	GI50 (HCC 2998)	GI50 (KM12)	GI50 (IGROV-1)	GI50 (OVCAR-8)	GI50 (HL-60)	GI50 (SW-620)
COC(=O)[C@@]12OC[C@]34C([C@@H](O)C1O)[C@@]1(C)CC(=O)C(O)=C(C)C1C[C@H]3OC(=O)[C@H](OC(=O)/C=C(/c1ccccc1)C(F)(F)F)[C@H]42 (some centres undefined)	6.05 µM (inactive)	1.16 µM (inactive)	6.31 µM (inactive)	7.93	1.03 µM (active)	0.989 µM (active)	7.03 µM (inactive)	6.82 µM (inactive)	2.43 µM (inactive)	1.56 µM (inactive)	7.59 µM (inactive)	0.998 µM (active)	4.33 µM (inactive)	1.75 µM (inactive)	5.74 µM (inactive)	2.16 µM (inactive)	10.5 µM (inactive)	0.363 µM (active)	
CC12C(=O)N(CCN)C(=O)C1C1c3ccccc3C2c2ccccc21 (centres undefined)		> 100 µM (inactive)	> 100 µM (inactive)	> 100	> 100 µM (inactive)	> 100 µM (inactive)	> 100 µM (inactive)	> 100 µM (inactive)	> 100 µM (inactive)	> 100 µM (inactive)	> 100 µM (inactive)	> 100 µM (inactive)	> 100 µM (inactive)	> 100 µM (inactive)	> 100 µM (inactive)	> 100 µM (inactive)	> 100 µM (inactive)	77.8 µM (inactive)	> 100 µM (inactive)
CCOC(=O)C(C)(C)Oc1ccc2c(-c3ccc(Cl)cc3)cc(=O)oc2c1	> 100 µM (inactive)	> 100 µM (inactive)	> 100 µM (inactive)	> 100	> 100 µM (inactive)	> 100 µM (inactive)	> 100 µM (inactive)	> 100 µM (inactive)	> 100 µM (inactive)	> 100 µM (inactive)		> 100 µM (inactive)	> 100 µM (inactive)	> 100 µM (inactive)		> 100 µM (inactive)	> 100 µM (inactive)	> 100 µM (inactive)	> 100 µM (inactive)
CCOC(=O)C1=C(C)N(Cc2ccccc2)C(=O)C1CC#N (centres undefined)	56 µM (inactive)		47.1 µM (inactive)	> 100	> 100 µM (inactive)	> 100 µM (inactive)	> 100 µM (inactive)	> 100 µM (inactive)	> 100 µM (inactive)	99.8 µM (inactive)	> 100 µM (inactive)	55.3 µM (inactive)	> 100 µM (inactive)	> 100 µM (inactive)	> 100 µM (inactive)	> 100 µM (inactive)	83.9 µM (inactive)	26.7 µM (inactive)	34 µM (inactive)
CN(C)c1ccc(/C=C(/NC(=O)c2ccccc2)c2nc3cc(Cl)ccc3[nH]2)cc1	30.2 µM (inactive)	23.1 µM (inactive)	18.6 µM (inactive)	16.6	33.6 µM (inactive)	32.4 µM (inactive)	20.3 µM (inactive)	28.8 µM (inactive)	37.8 µM (inactive)	19.1 µM (inactive)	61.7 µM (inactive)	20.9 µM (inactive)	63.2 µM (inactive)	18.5 µM (inactive)	15.6 µM (inactive)	> 100 µM (inactive)	35.3 µM (inactive)	16 µM (inactive)	10.4 µM (inactive)
CCC1(O)C(=O)OCc2c1cc1n(c2=O)Cc2cc3ccc(CO)cc3nc2-1 (centres undefined)	7.26 µM (inactive)	4.53 µM (inactive)	23.8 µM (inactive)	15.6	1.09 µM (active)	1.12 µM (active)	12.2 µM (inactive)	3.81 µM (inactive)	4.85 µM (inactive)	7.08 µM (inactive)	2.97 µM (inactive)	0.322 µM (active)	6.04 µM (inactive)	8.26 µM (inactive)	9.35 µM (inactive)	12.2 µM (inactive)	2.62 µM (inactive)	2.57 µM (inactive)	7.52 µM (inactive)
CC(=O)C1CC2(c3ccccc3)C(=O)c3ccccc3N2O1 (centres undefined)	> 100 µM (inactive)	> 100 µM (inactive)	> 100 µM (inactive)	> 100		> 100 µM (inactive)	> 100 µM (inactive)	> 100 µM (inactive)	> 100 µM (inactive)	> 100 µM (inactive)		> 100 µM (inactive)	> 100 µM (inactive)	> 100 µM (inactive)		> 100 µM (inactive)	> 100 µM (inactive)	> 100 µM (inactive)	> 100 µM (inactive)
CCC(C)CC(C)CC(C)/C=C(\C)C1=C(C)CC(C)(O)O1 (centres undefined)	88.9 µM (inactive)			> 100	65.6 µM (inactive)	98.4 µM (inactive)	79.1 µM (inactive)	26.3 µM (inactive)	41 µM (inactive)	24.4 µM (inactive)	79.8 µM (inactive)	35.7 µM (inactive)	85.7 µM (inactive)	> 100 µM (inactive)		> 100 µM (inactive)	69.7 µM (inactive)	23.7 µM (inactive)	> 100 µM (inactive)
Cn1c2ccccc2n2c(=O)c3c(c(C#N)c12)CCCC3	> 100 µM (inactive)	> 100 µM (inactive)	> 100 µM (inactive)	> 100	> 100 µM (inactive)	> 100 µM (inactive)	> 100 µM (inactive)	> 100 µM (inactive)	> 100 µM (inactive)	> 100 µM (inactive)	> 100 µM (inactive)	> 100 µM (inactive)	> 100 µM (inactive)	> 100 µM (inactive)	> 100 µM (inactive)	> 100 µM (inactive)	> 100 µM (inactive)	> 100 µM (inactive)	> 100 µM (inactive)
CC1SC2=NC3=C(c4ccccc4C3=O)C(c3ccc(F)cc3)N2C1=O (centres undefined)		> 100 µM (inactive)	42.5 µM (inactive)	> 100	> 100 µM (inactive)	> 100 µM (inactive)	> 100 µM (inactive)	38.9 µM (inactive)	> 100 µM (inactive)	65.3 µM (inactive)	> 100 µM (inactive)	> 100 µM (inactive)	> 100 µM (inactive)	> 100 µM (inactive)	> 100 µM (inactive)	> 100 µM (inactive)	> 100 µM (inactive)	> 100 µM (inactive)	> 100 µM (inactive)
Nc1ccccc1[S+]([O-])c1ccccc1 (centres undefined)	> 100 µM (inactive)	> 100 µM (inactive)	> 100 µM (inactive)	> 100	> 100 µM (inactive)	> 100 µM (inactive)		> 100 µM (inactive)	> 100 µM (inactive)	> 100 µM (inactive)		> 100 µM (inactive)	> 100 µM (inactive)	> 100 µM (inactive)	> 100 µM (inactive)	> 100 µM (inactive)	> 100 µM (inactive)	> 100 µM (inactive)	> 100 µM (inactive)
OC1=CN=COc2ccccc21	> 100 µM (inactive)	> 100 µM (inactive)	> 100 µM (inactive)	> 100	> 100 µM (inactive)	> 100 µM (inactive)	> 100 µM (inactive)	34.7 µM (inactive)	> 100 µM (inactive)	> 100 µM (inactive)		> 100 µM (inactive)	> 100 µM (inactive)	> 100 µM (inactive)	> 100 µM (inactive)	> 100 µM (inactive)	> 100 µM (inactive)	> 100 µM (inactive)	> 100 µM (inactive)
COC1C2c3cc4c(cc3CC(C#N)(c3ccccc32)N1C(=O)c1ccccc1)OCO4 (centres undefined)	32.2 µM (inactive)	> 100 µM (inactive)		> 100	> 100 µM (inactive)	> 100 µM (inactive)	> 100 µM (inactive)	78.3 µM (inactive)	> 100 µM (inactive)	21 µM (inactive)		97.5 µM (inactive)		> 100 µM (inactive)	> 100 µM (inactive)	> 100 µM (inactive)	> 100 µM (inactive)	> 100 µM (inactive)	> 100 µM (inactive)
O=C(Cc1ccccc1)NS(=O)(=O)c1ccccc1	> 100 µM (inactive)	> 100 µM (inactive)	> 100 µM (inactive)		> 100 µM (inactive)	> 100 µM (inactive)	> 100 µM (inactive)	> 100 µM (inactive)	> 100 µM (inactive)	> 100 µM (inactive)	> 100 µM (inactive)	> 100 µM (inactive)	> 100 µM (inactive)	> 100 µM (inactive)	> 100 µM (inactive)	> 100 µM (inactive)	> 100 µM (inactive)	> 100 µM (inactive)	> 100 µM (inactive)
C[C@@H]1C2=CC[C@@]3(C)C(CCC3[C@H](C)[C@H]3C[C@@]4(C)O[C@@](c5cccnc5)(O3)OC4(C)C)[C@@H]2C2OC2[C@@]12CCC(=O)O2 (some centres undefined)		37.4 µM (inactive)		32.1	32 µM (inactive)	37.5 µM (inactive)	44 µM (inactive)	34.4 µM (inactive)	40.8 µM (inactive)	29.2 µM (inactive)	27.6 µM (inactive)		67.8 µM (inactive)	37 µM (inactive)	38.8 µM (inactive)	76.6 µM (inactive)	32.4 µM (inactive)	17 µM (inactive)	37.7 µM (inactive)
Nc1ccc(Nc2nc(F)nc(-c3c4ccccc4c4n3CCS4)n2)cc1	16 µM (inactive)	14.5 µM (inactive)	15 µM (inactive)	10.1		10.4 µM (inactive)	> 10 µM (inactive)	8.38 µM (inactive)	14.6 µM (inactive)		11 µM (inactive)	11.2 µM (inactive)	10.5 µM (inactive)	22 µM (inactive)	10.9 µM (inactive)	12.4 µM (inactive)	16.8 µM (inactive)		13 µM (inactive)
